From US7371779B2, “Synergistic compositions of N-acylhomoserine lactones and 4-quinolones” (The Secretary of State for Defense Science and Technology, priority 2001, dated 2008) come the findings set out here.

“Also recorded” adds a separate entry of the source.

One experiment deals with TNF-alpha. Put plainly: TNF-alpha production from LPS-stimulated human PBMC (sandwich ELISA). Type of experiment: cell-based. The note with it: for inhibition of LPS induced TNF-α production by human PBMC, in words: LPS-stimulated human PBMC. As to the method: Bacterial lipopolysaccharide (LPS) stimulates the production of a variety of cytokines, including TNF-alpha, from human PBMC; these cytokines in turn influence the development of T cells, supporting a T helper 1 conducive milieu. Human PBMC prepared from whole blood by buoyant density centrifugation were resuspended in CTCM. […] Following incubation for 24 h at 37° C. in 5% CO2-air, the cell culture supernatants were collected and tested for TNF-alpha levels by ‘sandwich’ ELISA. Briefly, 96-well Nunc MaxiSorp (Life Technologies, Paisley, UK) plates were coated with 50 μl of a 2 μg/ml solution of mouse anti-human TNF-alpha monoclonal antibody (Pharmingen, UK) in 0.05 M carbonate/bicarbonate buffer, pH 9.6 overnight at 4° C. After washing the plates three times with PBS-Tween, which contained phosphate buffered saline (PBS) with 0.5% (vol/vol) Tween 20 (Sigma, Poole, UK), the plates were blocked with 1% (wt/vol) bovine serum albumin (BSA) (Sigma, Poole, UK) at room temperature for 2 h. Following three washes with PBS-Tween, 50 μl of cell culture supernatants were added and incubated overnight at 4° C.; standard human TNF-alpha (Pharmingen, UK) ranging from 2000 to 31.25 pg/ml were included for each plate. After four washes with PBS-Tween, 50 μl of a second antibody, biotinylated mouse anti-human TNF-alpha monoclonal antibody (Pharmingen, UK) was added at 0.5 μg/1 ml diluted in 1% BSA in PBS-Tween and incubated at room temperature for 1 h. Following four washes, the bound biotinylated antibody was detected with 50 μl of a 1:1,000 dilution of Streptavidin-peroxidase (Pharmingen, UK). At the end of an hour incubation at room temperature, the plates were thoroughly washed six times with PBS-Tween and the assay was developed by the addition of 100 μl of 0.1 mg/ml of tetramethyl benzidine subtrate (Sigma, Poole, UK) in 0.1 M sodium acetate buffer, pH 6 containing 0.03% H2O2. The enzyme reaction was stopped with 50 μl of 2.5 M H2SO4 after an incubation of 10 minutes at room temperature and the development was read at 450 nm with a spectrophotometric 96-well plate reader (Dynex).
A general note: An ELISA detects its analyte on a solid surface through an enzyme-linked reagent.

In a further experiment the test system is hPBMC. Kind of experiment: Cell proliferation of hPBMC stimulated with anti-CD3 and anti-CD28. Type of experiment: cell-based, human. Particulars: four donors; for inhibition of proliferation of hPBMC stimulated via CD3 and CD28, in words: 0.78125 to 100 μM. As to the method:
Anti-CD3 and anti-CD28 antibodies were used to assess the effect of quorum sensing signal molecules (PQS, OdDHL and OHHL) on T-cell proliferation and IL-2 secretion. Proliferation was assessed by the incorporation of [^3H]-thymidine into the DNA of PBMC and the release of cytokines in the culture supernatants was determined by ‘sandwich’ ELISA. Blood specimens were obtained with consent from four healthy human volunteers (aged between 20 and 50 years). Human PBMC were isolated from heparinised whole blood by buoyant density centrifugation over Histopaque 1077 (Sigma, Poole, UK) at 600 g for 20 minutes. PBMC harvested from the ‘buffy’ layers were washed twice with RPMI 1640 medium and resuspended in complete cell culture medium (CTCM) consisting of RPMI 1640 medium with 5% FCS, 2 mM L-glutamine, and 5×10^−5 M 2-mercaptoethanol. The quorum sensing molecules, of which stock solutions of 0.1 M were soluble in DMSO, were initially diluted into CTCM and then tested in triplicate wells at concentrations ranging from 0.78125 to 100 μM in 200 μl of CTCM, containing 100,000 hPBMC which were challenged with 100 ng/ml of mouse anti-human CD3 monoclonal antibody (clone UCHT1; BD Pharmingen, UK) and 5 μg/ml of mouse anti-human CD28 monoclonal antibody (clone CD28.2; BD Pharmingen, UK). hPBMC were incubated for 24 h at 37° C. in 5% CO2-air and 50 μl of culture supernatants were removed for the determination of IL-2 (see IV.II below). The cells were returned for a further 24 h culture, followed by pulsing with 0.25 μCi [^3H]-thymidine (Amersham) in 10 μl volume made up in RPMI 1640 medium. After a further incubation of 24 h, cells were harvested onto 96-well filter plates (Unifilter Filtermate Harvester™, Packard Bioscience Ltd, UK). Following the addition of 25 μl of scintillant (MicroScint-O™; Packard Bioscience Ltd. UK) to each well in the filter plates, the radioactivity in the filters was measured with a β-scintillation counter (TopCount™, Packard Bioscience Ltd, UK) according to manufacturer's specifications. […]

Another experiment deals with IL-2. Kind of experiment: Release of IL-2 from BALB/c splenocytes stimulated with ConA. The note with it: ConA 1 μg/ml.

Usually IC50 stands for the midpoint of a concentration-inhibition curve.

In the case of `CCCCCCCCCC(=O)CC(=O)N[C@H]1CCOC1=O` [Example 6], the IC50 in the experiment with TNF-alpha (Experiment III, read-out: IC50 in inhibition of LPS induced production of TNF-α by human PBMC) was determined as 17 µM. Also, the “inhibition of LPS induced TNF-α production by human PBMC, in words” value in the experiment with TNF-alpha (listed as OdDHL) is “inhibited the secretion”. In the experiment on hPBMC (listed as OdDHL), the “inhibition of proliferation of hPBMC stimulated via CD3 and CD28, in words” value is reported as “inhibited, in a dose dependent manner; also recorded: inhibit the proliferation of stimulated hPBMC”. The “inhibition of release of IL-2 from BALB/c splenocytes, in words” value in the experiment on IL-2 is “inhibit the release of IL-2”.

For the compound `CCCCCCCc1[nH]c2ccccc2c(=O)c1O` [PQS], the “inhibition of LPS induced TNF-α production by human PBMC, in words” value with TNF-alpha is given as “not inhibited”. In addition, in the experiment on hPBMC, the “potency relative to OdDHL in inhibition of CD3/CD28 stimulated hPBMC proliferation” value was “consistently more potent than OdDHL”; the “inhibition of proliferation of hPBMC stimulated via CD3 and CD28, in words” value is listed as “inhibited, in a dose dependent manner; also recorded: inhibit the proliferation of stimulated hPBMC”. Besides, in the experiment on IL-2, the “inhibition of release of IL-2 from BALB/c splenocytes, in words” value is reported as “inhibit the release of IL-2”.
